The results in this text go back to patent US10377753B2, “Substituted 4-azaindoles and their use as GluN2B receptor modulators” (Janssen Pharmaceutica NV, priority 2015, dated 2019).

In this assay the target is cloned human NR1/NR2B ion channels (Homo sapiens (Human), UniProt Q05586+Q13224). As to the kind of experiment: HNR2BC: effects of test articles on cloned human NR1/NR2B ion channels expressed in mammalian cells (FLIPR calcium flux). It counts as cell-based. As to conditions: Table 5. In short, it runs like this: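 In a stable Tet-On-induced cell line expressing human GluN1/GluN2B, Calcium 5-loaded cells were preincubated 5 min with compound, then stimulated 5 min with glutamate at ~EC80 plus 10 μM glycine, in pH 7.4 HEPES buffer. FLIPR calcium fluorescence was normalized to control wells.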

Where [1] appears, read: cloned human NR1/NR2B ion channels.

Counter-ions that a name gives are not always drawn.

Sequence of cloned human NR1/NR2B ion channels (Q13224 27-1484, other chains not shown): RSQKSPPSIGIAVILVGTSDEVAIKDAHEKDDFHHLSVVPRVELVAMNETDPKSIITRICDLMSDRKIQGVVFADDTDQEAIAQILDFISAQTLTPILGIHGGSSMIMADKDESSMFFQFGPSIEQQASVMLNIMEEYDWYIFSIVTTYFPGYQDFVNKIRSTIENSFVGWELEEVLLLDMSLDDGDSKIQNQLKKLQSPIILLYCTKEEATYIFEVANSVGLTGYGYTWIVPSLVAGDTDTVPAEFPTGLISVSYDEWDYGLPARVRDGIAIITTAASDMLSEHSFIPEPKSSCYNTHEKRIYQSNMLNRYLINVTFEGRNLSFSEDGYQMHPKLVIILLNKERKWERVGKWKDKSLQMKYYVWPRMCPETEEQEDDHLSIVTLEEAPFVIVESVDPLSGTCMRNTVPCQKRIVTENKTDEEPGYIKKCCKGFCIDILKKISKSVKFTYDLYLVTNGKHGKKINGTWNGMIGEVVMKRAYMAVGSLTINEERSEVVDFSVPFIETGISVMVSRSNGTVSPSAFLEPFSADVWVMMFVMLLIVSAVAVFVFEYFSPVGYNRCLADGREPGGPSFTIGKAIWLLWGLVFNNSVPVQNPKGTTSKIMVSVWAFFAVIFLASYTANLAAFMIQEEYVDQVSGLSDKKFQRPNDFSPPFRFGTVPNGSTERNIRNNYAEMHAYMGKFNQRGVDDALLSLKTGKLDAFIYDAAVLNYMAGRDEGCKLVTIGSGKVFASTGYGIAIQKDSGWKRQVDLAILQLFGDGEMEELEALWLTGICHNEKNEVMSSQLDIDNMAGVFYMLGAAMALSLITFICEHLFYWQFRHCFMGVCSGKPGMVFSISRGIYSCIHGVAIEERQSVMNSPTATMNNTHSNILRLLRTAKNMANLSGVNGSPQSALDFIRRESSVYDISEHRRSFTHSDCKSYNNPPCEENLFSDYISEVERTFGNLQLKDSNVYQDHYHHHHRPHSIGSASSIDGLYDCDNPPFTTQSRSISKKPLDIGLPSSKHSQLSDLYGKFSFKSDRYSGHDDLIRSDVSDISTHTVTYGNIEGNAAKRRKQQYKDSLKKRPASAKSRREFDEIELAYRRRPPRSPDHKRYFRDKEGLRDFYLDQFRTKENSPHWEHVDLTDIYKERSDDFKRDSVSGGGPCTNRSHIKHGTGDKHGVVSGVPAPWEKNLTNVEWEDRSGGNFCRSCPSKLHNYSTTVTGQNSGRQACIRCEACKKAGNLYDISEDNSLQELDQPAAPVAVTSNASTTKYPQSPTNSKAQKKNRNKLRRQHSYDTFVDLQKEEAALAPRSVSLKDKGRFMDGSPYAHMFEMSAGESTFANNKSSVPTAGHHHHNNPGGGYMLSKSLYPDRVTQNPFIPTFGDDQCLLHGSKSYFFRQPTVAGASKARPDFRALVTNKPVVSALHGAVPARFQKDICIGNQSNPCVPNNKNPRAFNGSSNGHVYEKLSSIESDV

With `FC(F)(F)c1cccc(-c2cnc3c(Cl)cn(Cc4cccnn4)c3c2)c1` [Example 615, 3-Chloro-1-(pyridazin-3-ylmethyl)-6-[3-(trifluoromethyl)phenyl]pyrrolo[3,2-b]pyridine], under setting [1], the IC50 is 25.1 nM.

For the compound `CCN(C)C(=O)Cn1cc(C)c2ncc(-c3ccc(F)c(C)c3F)cc21` [Example 625, 2-[6-(2,4-Difluoro-3-methyl-phenyl)-3-methyl-pyrrolo[3,2-b]pyridin-1-yl]-N-ethyl-N-methyl-acetamide], the IC50 under setting [1] was 100 nM.

`O=C(Cn1ccc2ncc(-c3cc(Cl)cs3)cc21)N1CCC1` [Example 394, 1-(Azetidin-1-yl)-2-[6-(4-chloro-2-thienyl)pyrrolo[3,2-b]pyridin-1-yl]ethanone trifluoroacetate salt]: the IC50 under setting [1] was 158 nM.

On to `O=C(Cn1cc(Cl)c2ncc(-c3ccccc3)cc21)N1CCOCC1` [Example 5, 2-(3-Chloro-6-phenyl-pyrrolo[3,2-b]pyridin-1-yl)-1-morpholino-ethanone], for which the half-maximal inhibitory concentration (IC50) (cloned human NR1/NR2B) was 200 nM.

Consider `O=C(Cn1ccc2ncc(-c3ccc(F)c(C(F)(F)F)c3)cc21)NC1CC1` [Example 101, N-Cyclopropyl-2-[6-[4-fluoro-3-(trifluoromethyl)phenyl]pyrrolo[3,2-b]pyridin-1-yl]acetamide], for which, where the note is “cloned human NR1/NR2B”, the 50% inhibitory concentration (IC50) is 200 nM.

In the case of `Cc1cccc(-c2cnc3c(Br)cn(CC(=O)N4CCCC4)c3c2)c1` [Example 23, 2-[3-Bromo-6-(m-tolyl)pyrrolo[3,2-b]pyridin-1-yl]-1-pyrrolidin-1-yl-ethanone], the IC50 (cloned human NR1/NR2B) was 50.1 nM.

For `CC(C)C(=O)Cn1cc(F)c2ncc(-c3ccc(F)cc3)cc21` [Example 341, 1-[3-Fluoro-6-(4-fluorophenyl)pyrrolo[3,2-b]pyridin-1-yl]-3-methyl-butan-2-one], the half-maximal inhibitory concentration (IC50) (cloned human NR1/NR2B) was 1000 nM.

For `CN(C)C(=O)Cn1cc(F)c2ncc(-c3cccc(C(F)F)c3)cc21` [Example 95, 2-[6-[3-(Difluoromethyl)phenyl]-3-fluoro-pyrrolo[3,2-b]pyridin-1-yl]-N,N-dimethyl-acetamide], where the note is “cloned human NR1/NR2B”, the IC50 is 39.8 nM.

As for `O=C(Cn1cc(Cl)c2ncc(-c3cccc(F)c3)cc21)N1CCC1` [Example 530, 1-(Azetidin-1-yl)-2-[3-chloro-6-(3-fluorophenyl)pyrrolo[3,2-b]pyridin-1-yl]ethanone], the IC50 under setting [1] is 39.8 nM.

For `CO/N=C(/Cn1ccc2ncc(-c3ccc(F)c(C)c3)cc21)C1CC1` [Example 276, 1-Cyclopropyl-2-[6-(4-fluoro-3-methyl-phenyl)pyrrolo[3,2-b]pyridin-1-yl]-N-methoxy-ethanimine], the IC50 (cloned human NR1/NR2B) is 501 nM.

With `CN(C)C(=O)Cn1cc(F)c2ncc(-c3ccc(F)c(F)c3)cc21` [Example 93, 2-[6-(3,4-Difluorophenyl)-3-fluoro-pyrrolo[3,2-b]pyridin-1-yl]-N,N-dimethyl-acetamide], the IC50 (cloned human NR1/NR2B) is 39.8 nM.

Consider `O=C(Cn1ccc2ncc(-c3ccc(F)c(F)c3F)cc21)N1CCOCC1` [Example 126, 1-Morpholino-2-[6-(2,3,4-trifluorophenyl)pyrrolo[3,2-b]pyridin-1-yl]ethanone], for which, where the note is “cloned human NR1/NR2B”, the IC50 is 100 nM.

For `Cc1cccc(-c2cnc3ccn(CC(=O)N4CC(F)(F)C4)c3c2)c1` [Example 269, 1-(3,3-Difluoroazetidin-1-yl)-2-[6-(m-tolyl)pyrrolo[3,2-b]pyridin-1-yl]ethanone], the IC50 (cloned human NR1/NR2B) was 63.1 nM.

Regarding `O=C(Cn1ccc2ncc(-c3cc(F)c(F)c(F)c3)cc21)N1CCC1` [Example 363, 1-(Azetidin-1-yl)-2-[6-(3,4,5-trifluorophenyl)pyrrolo[3,2-b]pyridin-1-yl]ethanone], the IC50 (cloned human NR1/NR2B) was 79.4 nM.

`O=C(Cn1ccc2ncc(-c3cccc(C(F)(F)F)n3)cc21)NC1CC1` [Example 111, N-Cyclopropyl-2-[6-[6-(trifluoromethyl)-2-pyridyl]pyrrolo[3,2-b]pyridin-1-yl]acetamide]: the IC50 (cloned human NR1/NR2B) is 398 nM.

On to `Cc1cc(-c2cnc3c(F)cn(CC(=O)N4CCC4)c3c2)ccc1F` [Example 69, 1-(Azetidin-1-yl)-2-[3-fluoro-6-(4-fluoro-3-methyl-phenyl)pyrrolo[3,2-b]pyridin-1-yl]ethanone], for which the IC50 (cloned human NR1/NR2B) is 25.1 nM.

Take `Cc1cn(CC(=O)N(C)C)c2cc(-c3ccc(Cl)s3)cnc12` [Example 628, 2-[6-(5-Chloro-2-thienyl)-3-methyl-pyrrolo[3,2-b]pyridin-1-yl]-N,N-dimethyl-acetamide]: the concentration for half-maximal inhibition (IC50) under setting [1] was 100 nM.

In the case of `Cc1cn(CC(=O)N2CC(F)C2)c2cc(-c3ccc(F)c(F)c3F)cnc12` [Example 588, 1-(3-Fluoroazetidin-1-yl)-2-[3-methyl-6-(2,3,4-trifluorophenyl)pyrrolo[3,2-b]pyridin-1-yl]ethanone], under setting [1], the IC50 is 631 nM.

With `CCC(=O)Cn1cc(F)c2ncc(-c3cccc(C(F)F)c3)cc21` [Example 337, 1-[6-[3-(Difluoromethyl)phenyl]-3-fluoro-pyrrolo[3,2-b]pyridin-1-yl]butan-2-one], the IC50 (cloned human NR1/NR2B) was 15.8 nM.

On to `CCN(C)C(=O)Cn1cc(C)c2ncc(-c3ccc(C)s3)cc21` [Example 630, N-Ethyl-N-methyl-2-[3-methyl-6-(5-methyl-2-thienyl)pyrrolo[3,2-b]pyridin-1-yl]acetamide], for which the IC50 under setting [1] is 251 nM.

Take `Cc1cn(CC(=O)N2CC(F)C2)c2cc(-c3ccccc3F)cnc12` [Example 638, 1-(3-Fluoroazetidin-1-yl)-2-[6-(2-fluorophenyl)-3-methyl-pyrrolo[3,2-b]pyridin-1-yl]ethanone]: the IC50 under setting [1] is 126 nM.

For the compound `CC(C)C(=O)Cn1cc(F)c2ncc(-c3ccc(F)c(F)c3)cc21` [Example 326, 1-[6-(3,4-Difluorophenyl)-3-fluoro-pyrrolo[3,2-b]pyridin-1-yl]-3-methyl-butan-2-one], the IC50 (cloned human NR1/NR2B) was 200 nM.

As for `CCN(C)C(=O)Cn1cc(C)c2ncc(-c3ccc(F)c(F)c3F)cc21` [Example 584, N-Ethyl-N-methyl-2-[3-methyl-6-(2,3,4-trifluorophenyl)pyrrolo[3,2-b]pyridin-1-yl]acetamide], the IC50 under setting [1] was 398 nM.

Regarding `COCCNC(=O)Cn1ccc2ncc(-c3ccc(F)cc3)cc21` [Example 254, 2-[6-(4-Fluorophenyl)pyrrolo[3,2-b]pyridin-1-yl]-N-(2-methoxyethyl)acetamide], under “cloned human NR1/NR2B”, the IC50 is 1260 nM.

For the compound `O=C(Cn1cc(Cl)c2ncc(-c3ccccc3)cc21)N1CC(F)(F)C1` [Example 55, 2-(3-Chloro-6-phenyl-pyrrolo[3,2-b]pyridin-1-yl)-1-(3,3-difluoroazetidin-1-yl)ethanone], the IC50 (cloned human NR1/NR2B) is 31.6 nM.

In the case of `O=C(Cn1cc(F)c2ncc(-c3cccc(F)c3)cc21)N1CC(F)C1` [Example 492, 1-(3-Fluoroazetidin-1-yl)-2-[3-fluoro-6-(3-fluorophenyl)pyrrolo[3,2-b]pyridin-1-yl]ethanone], the IC50 under setting [1] was 25.1 nM.

`Cc1cccc(-c2cnc3c(C)cn(CC(=O)N4CCC4)c3c2)c1F` [Example 561, 1-(Azetidin-1-yl)-2-[6-(2-fluoro-3-methyl-phenyl)-3-methyl-pyrrolo[3,2-b]pyridin-1-yl]ethanone]: the IC50 under setting [1] was 398 nM.

Consider `O=C(Cn1cc(F)c2ncc(-c3cc(F)c(F)c(F)c3)cc21)N1CC(F)C1` [Example 306, 1-(3-Fluoroazetidin-1-yl)-2-[3-fluoro-6-(3,4,5-trifluorophenyl)pyrrolo[3,2-b]pyridin-1-yl]ethanone], for which the IC50 (cloned human NR1/NR2B) is 398 nM.

For the compound `O=C(CC1CC1)n1ccc2ncc(-c3ccc(F)c(F)c3)cc21` [Example 119, 2-Cyclopropyl-1-[6-(3,4-difluorophenyl)pyrrolo[3,2-b]pyridin-1-yl]ethanone], for the setting “cloned human NR1/NR2B”, the IC50 is 50.1 nM.

In the case of `O=C(Cn1ccc2ncc(-c3cccs3)cc21)N1CCCC1` [Example 278, 1-Pyrrolidin-1-yl-2-[6-(2-thienyl)pyrrolo[3,2-b]pyridin-1-yl]ethanone], the IC50 (cloned human NR1/NR2B) was 251 nM.

With `Cc1cc(-c2cnc3c(Cl)cn(CC(=O)NC4CC4)c3c2)ccc1F` [Example 176, 2-[3-Chloro-6-(4-fluoro-3-methyl-phenyl)pyrrolo[3,2-b]pyridin-1-yl]-N-cyclopropyl-acetamide trifluoroacetate salt], the IC50 (cloned human NR1/NR2B) was 31.6 nM.

For the compound `Cc1cc(-c2cnc3ccn(CC(=O)N(C)CC(F)(F)F)c3c2)ccc1F` [Example 415, 2-[6-(4-Fluoro-3-methyl-phenyl)pyrrolo[3,2-b]pyridin-1-yl]-N-methyl-N-(2,2,2-trifluoroethyl)acetamide], the 50% inhibitory concentration (IC50) under setting [1] is 63.1 nM.

In the case of `Cc1cccc(-c2cnc3ccn(CC(=O)N4CCC4)c3c2)c1F` [Example 451, 1-(Azetidin-1-yl)-2-[6-(2-fluoro-3-methyl-phenyl)pyrrolo[3,2-b]pyridin-1-yl]ethanone], the IC50 under setting [1] is 50.1 nM.

On to `Cc1ccc(-c2cnc3ccn(CC(=O)N4CC(F)(F)C4)c3c2)s1` [Example 279, 1-(3,3-Difluoroazetidin-1-yl)-2-[6-(5-methyl-2-thienyl)pyrrolo[3,2-b]pyridin-1-yl]ethanone], for which the half-maximal inhibitory concentration (IC50) (cloned human NR1/NR2B) was 251 nM.

With `Cc1cn(CC(=O)N(C)C)c2cc(-c3cccc(C(F)(F)F)c3F)cnc12` [Example 586, 2-[6-[2-Fluoro-3-(trifluoromethyl)phenyl]-3-methyl-pyrrolo[3,2-b]pyridin-1-yl]-N,N-dimethyl-acetamide], the concentration for half-maximal inhibition (IC50) under setting [1] was 126 nM.

`O=C(Cn1cc(Cl)c2ncc(-c3cc(Cl)cs3)cc21)N1CCC1` [Example 422, 1-(Azetidin-1-yl)-2-[3-chloro-6-(4-chloro-2-thienyl)pyrrolo[3,2-b]pyridin-1-yl]ethanone]: the IC50 under setting [1] was 200 nM.

Turning to `Cc1cccc(-c2cnc3c(C)cn(CC(=O)N4CCC4)c3c2)c1` [Example 581, 1-(Azetidin-1-yl)-2-[3-methyl-6-(m-tolyl)pyrrolo[3,2-b]pyridin-1-yl]ethanone], the half-inhibitory concentration (IC50) under setting [1] is 79.4 nM.

On to `O=C(Cn1ccc2ncc(-c3ccc(F)c(C(F)(F)F)c3)cc21)N1CCCC1` [Example 105, 2-[6-[4-Fluoro-3-(trifluoromethyl)phenyl]pyrrolo[3,2-b]pyridin-1-yl]-1-pyrrolidin-1-yl-ethanone], for which the IC50 (cloned human NR1/NR2B) is 39.8 nM.
